IC50 data for 13 molecules are collected here from patent EP4806891A1 (Kangbaida (Sichuan) Biotechnology Co., Ltd., priority 2023, dated 2025).

In this experiment the target is T1, HEK-Blue-hTLR8 cells (Homo sapiens, UniProt Q9NR97).
T1 construct: expressed in transfected cells; host or cells: HEK-Blue-hTLR8 cells (HEK293-derived reporter line)
T1 sequence (Q9NR97 27-1041): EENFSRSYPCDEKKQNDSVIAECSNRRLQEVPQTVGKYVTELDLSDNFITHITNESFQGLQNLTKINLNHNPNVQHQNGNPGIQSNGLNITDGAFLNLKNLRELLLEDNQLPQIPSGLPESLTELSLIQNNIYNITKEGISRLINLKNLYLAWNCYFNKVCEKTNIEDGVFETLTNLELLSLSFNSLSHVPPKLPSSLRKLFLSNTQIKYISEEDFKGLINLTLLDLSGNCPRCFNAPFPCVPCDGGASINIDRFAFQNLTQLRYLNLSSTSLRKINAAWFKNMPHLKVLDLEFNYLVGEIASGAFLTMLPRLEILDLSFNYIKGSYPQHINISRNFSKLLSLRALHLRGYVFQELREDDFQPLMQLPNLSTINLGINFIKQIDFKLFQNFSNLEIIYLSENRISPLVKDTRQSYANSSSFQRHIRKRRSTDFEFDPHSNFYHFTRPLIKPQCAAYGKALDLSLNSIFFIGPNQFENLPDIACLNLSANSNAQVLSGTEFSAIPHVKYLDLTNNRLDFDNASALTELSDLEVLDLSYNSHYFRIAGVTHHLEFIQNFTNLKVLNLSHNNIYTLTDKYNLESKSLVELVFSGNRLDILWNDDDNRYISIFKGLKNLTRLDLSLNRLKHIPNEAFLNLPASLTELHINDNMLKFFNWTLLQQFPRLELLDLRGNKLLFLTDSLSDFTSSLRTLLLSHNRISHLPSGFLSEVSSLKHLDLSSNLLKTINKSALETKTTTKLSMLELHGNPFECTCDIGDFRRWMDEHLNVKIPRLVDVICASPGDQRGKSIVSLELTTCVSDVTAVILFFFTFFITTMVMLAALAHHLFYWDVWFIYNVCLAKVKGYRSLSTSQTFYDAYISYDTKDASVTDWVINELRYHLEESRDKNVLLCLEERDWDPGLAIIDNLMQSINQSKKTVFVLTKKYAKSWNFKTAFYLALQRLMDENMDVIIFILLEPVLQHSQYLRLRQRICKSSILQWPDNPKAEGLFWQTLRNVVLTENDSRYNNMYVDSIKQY
Put plainly: HEK-Blue-hTLR8 cell inhibition assay. The note with it: R848 3 µM, 16 h, OD 620 nm, read-out: TLR8 IC50. It counts as cell-based. In outline:
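Cells were pre-incubated 4 h, then co-treated 16 h at 37 °C with compound (10 doses, 0.5–10000 nM final) plus R848 (0.8 µM for TLR7, 3 µM for TLR8) or ODN2006 (1 µM, TLR9). Reporter OD620 gave inhibition relative to DMSO blank and agonist-only controls; IC50 came from curve fitting.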

Some results are limits rather than exact numbers.

By IC50 is commonly meant the point on the concentration scale where inhibition reaches its midpoint. `CN1CCC(c2nnc([C@]34CN(c5ccc(C#N)n6ncc(Br)c56)C[C@@]3(C(F)(F)F)C4)o2)CC1` [Compound 83, 3-bromo-4-((1S,5R)-1-(5-(1-methylpiperidin-4-yl)-1,3,4-oxadiazol-2-yl)-5-(trifluoromethyl)-3-azabicyclo[3.1.0]hexan-3-yl)pyrazolo[1,5-a]pyridine-7-carbonitrile]: the IC50 was over 1 µM.

As to `CN1CCC(c2nnc([C@]34CN(c5ccc(C#N)n6ncc(Cl)c56)C[C@@]3(C(F)(F)F)C4)o2)CC1` [Compound 84, 3-chloro-4-((1S,5R)-1-(5-(1-methylpiperidin-4-yl)-1,3,4-oxadiazol-2-yl)-5-(trifluoromethyl)-3-azabicyclo[3.1.0]hexan-3-yl)pyrazolo[1,5-a]pyridine-7-carbonitrile], the IC50 was under 1 µM. Regarding `CN1CCC(c2nnc([C@]34CN(c5c(Br)cc(C#N)n6ncc(Br)c56)C[C@@]3(C(F)(F)F)C4)o2)CC1` [Compound 85, 3,5-dibromo-4-((1S,5R)-1-(5-(1-methylpiperidin-4-yl)-1,3,4-oxadiazol-2-yl)-5-(trifluoromethyl)-3-azabicyclo[3.1.0]hexan-3-yl)pyrazolo[1,5-a]pyridine-7-carbonitrile], the IC50 was under 1 µM. Turning to `CN1CCC(c2nnc([C@]34CN(c5c(Br)cc(C#N)n6nccc56)C[C@@]3(C(F)(F)F)C4)o2)CC1` [Compound 86, 5-bromo-4-((1S,5R)-1-(5-(1-methylpiperidin-4-yl)-1,3,4-oxadiazol-2-yl)-5-(trifluoromethyl)-3-azabicyclo[3.1.0]hexan-3-yl)pyrazolo[1,5-a]pyridine-7-carbonitrile], the IC50 was under 0.1 µM.

`CN1CCC(c2nnc([C@]34CN(c5ccc(C(F)(F)F)n6nccc56)C[C@@]3(C(F)(F)F)C4)o2)CC1` [Compound 87, 2-(1-methylpiperidin-4-yl)-5-((1S,5R)-5-(trifluoromethyl)-3-(7-(trifluoromethyl)pyrazolo[1,5-a]pyridin-4-yl)-3-azabicyclo[3.1.0]hexan-1-yl)-1,3,4-oxadiazole]: the IC50 was under 1 µM. `CN1CCC(F)(c2nnc([C@]34CN(c5ccc(C#N)n6nccc56)C[C@@]3(C(F)(F)F)C4)o2)CC1` [Compound 90, 4-((1S,5R)-1-(5-(4-fluoro-1-methylpiperidin-4-yl)-1,3,4-oxadiazol-2-yl)-5-(trifluoromethyl)-3-azabicyclo[3.1.0]hexan-3-yl)pyrazolo[1,5-a]pyridine-7-carbonitrile]: the concentration for half-maximal inhibition (IC50) is under 0.1 µM. Turning to `CN1CCC(c2nnc([C@]34CN(c5ccc(C#N)c6ncnn56)C[C@@]3(C(F)(F)F)C4)o2)CC1` [Compound 91, 5-((1S,5R)-1-(5-(1-methylpiperidin-4-yl)-1,3,4-oxadiazol-2-yl)-5-(trifluoromethyl)-3-azabicyclo[3.1.0]hexan-3-yl)-[1,2,4]triazolo[1,5-a]pyridine-8-carbonitrile], the IC50 is under 0.1 µM. Under `CN1CCC(Oc2nnc([C@]34CN(c5ccc(C(F)(F)F)c6ncccc56)C[C@@]3(C(F)(F)F)C4)o2)CC1` [Compound 92, 2-((1-methylpiperidin-4-yl)oxy)-5-((1S,5R)-5-(trifluoromethyl)-3-(8-(trifluoromethyl)quinolin-5-yl)-3-azabicyclo[3.1.0]hexan-1-yl)-1,3,4-oxadiazole] stands under 0.1 µM.

As to `CN1CCC(Oc2nnc([C@]34CN(c5ccc(OC(F)(F)F)c6ncccc56)C[C@@]3(C(F)(F)F)C4)o2)CC1` [Compound 93, 2-((1-methylpiperidin-4-yl)oxy)-5-((1S,5R)-5-(trifluoromethyl)-3-(8-(trifluoromethoxy)quinolin-5-yl)-3-azabicyclo[3.1.0]hexan-1-yl)-1,3,4-oxadiazole], the IC50 is under 0.1 µM. As for `CN1CCC(O)(c2nnc([C@]34CN(c5ccc(C(F)(F)F)c6ncccc56)C[C@@]3(C(F)(F)F)C4)o2)CC1` [Compound 94, 1-methyl-4-(5-((1S,5R)-5-(trifluoromethyl)-3-(8-(trifluoromethyl)quinolin-5-yl)-3-azabicyclo[3.1.0]hexan-1-yl)-1,3,4-oxadiazol-2-yl)piperidin-4-ol], the IC50 was under 0.1 µM. `CN1CC(Cc2nnc([C@]34CN(c5ccc(C(F)(F)F)c6ncccc56)C[C@@]3(C(F)(F)F)C4)o2)C1` [Compound 95, 2-((1-methylazetidin-3-yl)methyl)-5-((1S,5R)-5-(trifluoromethyl)-3-(8-(trifluoromethyl)quinolin-5-yl)-3-azabicyclo[3.1.0]hexan-1-yl)-1,3,4-oxadiazole]: the IC50 is under 0.1 µM. In the case of `FC(F)(F)Oc1ccc(N2C[C@]3(c4nnc(C5(F)CCNCC5)o4)C[C@]3(C(F)(F)F)C2)c2cccnc12` [Compound 96, 2-(4-fluoropiperidin-4-yl)-5-((1S,5R)-3-(8-(trifluoromethoxy)quinolin-5-yl)-5-(trifluoromethyl)-3-azabicyclo[3.1.0]hexan-1-yl)-1,3,4-oxadiazole], the IC50 is under 0.1 µM. Turning to `CN1CCC(Oc2nnc([C@]34CN(c5ccc(C#N)c6ncnn56)C[C@@]3(C(F)(F)F)C4)o2)CC1` [Compound 97, 5-((1S,5R)-1-(5-((1-methylpiperidin-4-yl)oxy)-1,3,4-oxadiazol-2-yl)-5-(trifluoromethyl)-3-azabicyclo[3.1.0]hexan-3-yl)-[1,2,4]triazolo[1,5-a]pyridine-8-carbonitrile], the IC50 is under 0.1 µM.
